Data taken from US4022834A, “Antibacterially active hexamethylene-bis-biguanides” (priority 1972, dated 1977).
Structures can show the parent of a compound that is named as a salt. Where two headings read alike, the source gives them in different places.

What was measured:
[1] = Acute peroral toxicity in mice; conditions: mouse, in vivo, po
plaque [2] = test: Plaque-index on test persons after mouth rinsing; format: in vivo; conditions: rinsing with 10 ml of 1,1 mM solution 3 times daily for 3 days; scale 0 (no plaque) to 3 (clearly visible plaque marginally)
Description: Plaque-index on test persons after rinsing with 10 ml of 1,1 mM solution 3 times daily for 3 days. The rinsing was during this time the only type of oral hygiene used.
Plaque-index, which is a recognized measure of plaque-inhibiting property, runs from 0 (no plaque) to 3 (clearly visible plaque marginally).

Staph. aureus = test: Inhibition of growth in aqueous solution and subcultivation in liquid medium, Staph. aureus; format: cell-based; conditions: Reference: Chlorohexidine=1
Source text: (§1) Inhibition of growth in aqueous solution and subcultivation in liquid medium. Reference: Chlorohexidine=1.

Aerobacter aerogenes = test: Inhibition of growth in aqueous solution and subcultivation in liquid medium, Aerobacter aerogenes; format: cell-based; conditions: Reference: Chlorohexidine=1
Source text: as §1

human epithelial cells = test: Cytotoxic effect on human epithelial cells in vitro; format: cell-based
Description: Cytotoxic effect on human epithelial cells in vitro after treatment for 5 minutes at 37° C. Reference: Chlorohexidine=1.

bacteria = conditions: cited from earlier work
plaque [3] = test: Plaque-index on test persons after mouth rinsing; format: in vivo; conditions: rinsing with 1,6 mM chlorohexidine under the same conditions; scale 0 to 3
plaque [4] = conditions: rinsing of the mouth; cited from earlier work
[5] = treatment for 5 minutes at 37° C., Reference: Chlorohexidine=1

Row | Compound | LD50 [1] | Plaque index (plaque [2]) | Inhibition of growth relative to chlorohexidine (Staph. aureus) | Inhibition of growth relative to chlorohexidine (Aerobacter aerogenes) | Cytotoxic effect relative to chlorohexidine (human epithelial cells) | Cytotoxic effect relative to chlorohexidine (human epithelial cells; [5]) | Toxicity compared with chlorohexidine (in words) (human epithelial cells; human epithelial cells in vitro) | Antibacterial activity (in words) (bacteria) | Plaque index (plaque [3]) | Effect against gingivitis and caries (in words) (plaque [4]) | Inhibition of plaque formation (in words) (plaque [4])
1 | [H]/N=C(\N/C(=N/[H])NCCCCCCNC(=N)NC(=N)Nc1ccc(Cl)cc1)Nc1ccc(Cl)cc1 [Chlorohexidine-digluconate, reference compound] | 1800 mg/kg |  |  |  |  |  |  |  |  |  | 
2 | CC(C)CCCC(C)NC(=N)NC(=N)NCCCCCCNC(=N)NC(=N)NC(C)CCCC(C)C (stereo not shown) [Compound 1, 1,1'-hexamethylene-bis-[5-(1,5-dimethylhexyl)biguanide]dihydrochloride] | 1690 mg/kg | 0,36 | 4 | 16 |  |  |  |  |  |  | 
3 | N=C(NCCCCCCNC(=N)NC(=N)N1CC2CCC(CC2)C1)NC(=N)N1CC2CCC(CC2)C1 [Compound 2] |  | 0,58 | 1 | 1 | 1/8 |  |  |  |  |  | 
4 | N=C(NCCCCCCNC(=N)NC(=N)NCC1CCCCC1)NC(=N)NCC1CCCCC1 [Compound 3] |  | 0,19 | 2 | 8 |  | 1/2 |  |  |  |  | 
5 | N=C(NCCCCCCNC(=N)NC(=N)NC12CC3CC(CC(C3)C1)C2)NC(=N)NC12CC3CC(CC(C3)C1)C2 [Compound 4, 1,1'-hexamethylene-bis-[5-(1-adamantyl)biguanide]dihydrochloride] | 2830 mg/kg | 0,36 | 16 | 8 |  |  |  |  |  |  | 
6 | N=C(NCCCCCCNC(=N)NC(=N)NC1CC2CCC1C2)NC(=N)NC1CC2CCC1C2 (stereo not shown) [Compound 5, 1,1'-hexamethylene-bis-[5-(2-endonorbornyl]biguanide)-dihydrochloride] |  | 0,50 | 1/2 | 1/8 |  | 1/8 |  |  |  |  | 
7 | CCCCCC(C)NC(=N)NC(=N)NCCCCCCNC(=N)NC(=N)NC(C)CCCCC.Cl.Cl (stereo not shown) [Compound 6, 1,1'-hexamethylene-bis-[5-(1-methylhexyl)biguanide]-dihydrochloride] |  | 0,27 | 4 | 1 |  | 1 |  |  |  |  | 
8 | CCC(C)CC(C)NC(=N)NC(=N)NCCCCCCNC(=N)NC(=N)NC(C)CC(C)CC (stereo not shown) [Compound 7, 1,1'-hexamethylene-bis-[5-(1,3-dimethylpenthyl)-biguanide]-dihydrochloride] |  | 0,29 | 8 | 1 |  | 1 |  |  |  |  | 
9 | CC(C)CCC(C)NC(=N)NC(=N)NCCCCCCNC(=N)NC(=N)NC(C)CCC(C)C.Cl.Cl (stereo not shown) [Compound 8, 1,1'-hexamethylene-bis-[5-(1,4-dimethylpentyl)biguanide]-dihydrochloride] |  | 0,70 | 8 | 1 |  | 1 |  |  |  |  | 
10 | CCCCC(CC)CNC(=N)NC(=N)NCCCCCCNC(=N)NC(=N)NCC(CC)CCCC (stereo not shown) [Compound 9, 1,1'-hexamethylene-bis-[5-(2-ethylhexyl)biguanide], reference compound] |  | 0,52 | 8 | 2 |  | 4 | much more toxic | known for having antibacterial activity |  |  | 
11 | N=C(NCCCCCCNC(=N)NC(=N)Nc1ccc(Cl)cc1)NC(=N)Nc1ccc(Cl)cc1 [chlorohexidine, 1,1'-hexamethylene-bis-[5-(4-chlorophenyl)biguanide]] |  |  |  |  |  |  |  | antibacterial effect | 0,75 | prophylactic effect against gingivitis and caries | marked inhibiting effect on the formation of plaque
